# Laboratory results taken from patent publication US9597408B2, “Peptide-mediated non-covalent delivery of active agents across the blood-brain barrier” (Mayo Foundation for Medical Education and Research, priority 2009, dated 2017).
# Where no end group is shown, it is not given here.
# Legend:
# BBB [1] = experiment: Necessity of covalent linking of K16 and ApoE moieties: β-galactosidase staining of brain sections; type: in vivo, mice; settings: β-galactosidase mixed with the peptide(s); FIG. 7
# Experimental: Delivery of β-galactosidase in brain with K16 peptide (SEQ ID NO: 4) alone (A), with ApoE peptide only (B), with K16 peptide (SEQ ID NO: 4)+ApoE peptide (C), and with K16APoE peptide (SEQ ID NO: 22) (D).
# The necessity of covalent linking of the K16 (SEQ ID NO: 4) and ApoE (SEQ ID NO: 13) peptide moieties was evaluated for non-covalent transport of a protein across the BBB. For this, β-galactosidase was mixed with either the ApoE peptide, the peptide K16 (SEQ ID NO: 4), ApoE plus K16 (SEQ ID NO: 4) or with K16ApoE (SEQ ID NO: 22), and injected in mice.
# BBB [2] = tested on: BBB; parameters: species or system mice; settings: mouse, in vivo
# Experimental: FIG. 8 illustrates the testing mutant ApoE peptides for their potential as non-covalent transporters of proteins across the BBB. A—no peptide, no β-gal; B—K16ApoE (SEQ ID NO: 22)+β-gal; C—K16L3N7 (SEQ ID NO: 126)+β-gal; D—K16L3L20 (SEQ ID NO: 127)+β-gal; E—K16N7L20 (SEQ ID NO: 128)+β-gal.
# β-galactosidase was mixed with equal amounts of various peptide transporters and injected into mice. Slides were prepared using 25 μm sections of the mice brains one hour after injection followed by development of enzyme staining (FIG. 8).
# BBB [3] = tested on: BBB; parameters: species or system mice; settings: mouse, in vivo; remark: listed apart in the source
# Experimental: The delivery of radiolabeled IgG across the BBB in different brain regions in mice with and without the peptide K16ApoE (SEQ ID NO:22) was evaluated. In addition, the integrity of the BBB after delivery of IgG with K16ApoE (SEQ ID NO: 22) was examined. […] of ^125I-IgG were mixed with varying amounts of the peptide K16ApoE (SEQ ID NO: 22) (0-55 μmol), and the mixture injected intravenously into the mice. ^131I-IgG not complexed with the peptide was injected into the same animals at 59 minutes and allowed to circulate for 1 minute subsequent to the initial femoral vein injection of ^125I-IgG+K16ApoE (SEQ ID NO: 22). Uptake of ^125I-IgG and ^131I-IgG were measured in different areas of the brain after 60 minutes.
# PS values reflect the amount of ^125I-IgG that has crossed the BBB, whereas Vp values indicate the amount of ^131I-IgG at the BBB but which has not crossed the BBB.
# brain [4] = tested on: brain; parameters: species or system mice; settings: mouse, in vivo
# Experimental: FIG. 1 is a series of images illustrating the differences between delivery of Alexa-IgG complexed to K16ApoE (SEQ ID NO: 22) into brain and uncomplexed Alexa-IgG.
# In this experiment, AlexaIgG488 was injected into mice with or without mixing with K16ApoE peptide (SEQ ID NO:22). Brain sections were made 1 hour after delivery.
# brain [5] = experiment: β-galactosidase delivery in brain, enzyme activity staining of brain slices; type: in vivo
# Experimental: Required amount of the peptide and protein were mixed in a final volume of 300 μL PBS (phosphate buffered saline), and incubated at room temperature for 60 minutes. The mixture was vortexed for a few seconds, every fifteen minutes during the incubation period.
# The mixture was injected intravenously as a bolus into the lumen of the femoral vein. This was accomplished using a heat pulled PE50 catheter. At the conclusion of the experiment, the mouse was euthanized with a lethal dose of sodium pentobarbital. Each mouse was perfused with 10 mL PBS. This perfusion was accomplished through the standard trans cardial method. The brain was removed from the skull and positioned to make an initial coronal slice at −2.0 mm bregma. Subsequently, 25 μm coronal sections were cut on a cryostat and placed on charged slides for staining of β-galactosidase activity.
# Evaluation of β-galactosidase enzymatic activity was accomplished by an initial 15 minute fixation of the brain sections in 0.25% glutaraldehyde. The slides were washed with 3 changes of PBS for 5 minutes each and then rinsed in distilled water for 5 minutes. The brain sections were incubated in X-Gal (0.2%) working solution, pH 7.38, for 18 hours at 37° C. in covered containers. Following this incubation the sections were dehydrated and coverslips were applied.
# To evaluate the potential of K16ApoE (SEQ ID NO: 22) for delivering a protein across the BBB, the enzyme β-galactosidase was injected in mice with or without prior mixing with K16ApoE (SEQ ID NO: 22) (at a protein to peptide molar ratio of 1:70). The experiment was repeated more than a dozen times. […] It is speculated that either X-gal or 5-bromo-4-chloroindole or both somehow leach out of this region faster than other regions of the brain resulting to a faint signal for β-galactosidase activity.
# mouse brain = experiment: microSPECT imaging of delivery of radioiodinated human IgG and IgM; type: in vivo
# Experimental: Micro SPECT/CT experiments were conducted on a Gamma Medica X SPECT System (GE Healthcare). Human IgG (Sigma) and IgM (Sigma) were labeled to a high specific activity using the Chloramine-T method. […] Immediately subsequent to the intravenous bolus injection, the mice were imaged every hour for a total of 6 hours. At the completion of the 6 hour time point, each mouse was euthanized and the systemic blood supply was transcardially perfused with 10 mL phosphate buffered saline, and imaged after 30 minutes.
# Since many potentially therapeutic proteins against brain-associated disorders are immunoglobulins, delivery of IgG and IgM through K16ApoE (SEQ ID NO: 22) in mouse brain was evaluated by micro-single photon emission computed tomography (microSPECT) imaging. For this, radioiodinated human IgG (Sigma, product # I 4506) and human IgM (Sigma, product # I 8260) were mixed with K16ApoE (SEQ ID NO: 22) and injected intravenously. Anesthetized animals were then subjected to imaging for 6 hours at 1 hour interval. Cardiac perfusion was then performed, after which final imaging was done at 30 minutes post-perfusion. Results from these experiments provide a number of indications (FIG. 4): First, it appears that peak delivery of both IgG and IgM into brain happens around 2 hours post-injection of the peptide-protein mix, after which uptake of the proteins in the brain remains relatively unchanged up to 6 hours (maximum time point tested). Second, cardiac perfusion appears to remove most of the radioactive protein in the vasculature, concomitantly increasing the difference between apparent brain-uptake of the protein with and without the carrier peptide (˜5-fold).
# BBB [6] = tested on: BBB; parameters: species or system mice; settings: mouse, in vivo; remark: listed apart in the source
# Experimental: Each mouse (represented by A through G) received an injection of K16ApoE (SEQ ID NO: 22), followed by injection of β-galactosidase at the indicated times. Brain slices were made 4 hours after β-galactosidase injection and were followed by staining for activity of the enzyme. A—β-galactosidase was injected 1 minute after K16ApoE (SEQ ID NO: 22) injection. B—β-galactosidase was injected 5 minutes after K16ApoE (SEQ ID NO: 22) injection. C—β-galactosidase was injected 10 minutes after K16ApoE (SEQ ID NO: 22) injection. D—β-galactosidase was injected 30 minutes after K16ApoE (SEQ ID NO: 22) injection. E—β-galactosidase was injected 1 hour after K16ApoE (SEQ ID NO: 22) injection. F—β-galactosidase was injected 2 hours after K16ApoE (SEQ ID NO: 22) injection. G—β-galactosidase was injected 4 hours after K16ApoE (SEQ ID NO: 22) injection. H—positive control (β-galactosidase mixed with K16ApoE (SEQ ID NO: 22) was injected, brain slices were made 4 hours after the injection and proceeded for staining for enzyme activity).
# A transporter that efficiently carries a protein in the brain should not do so by impairing the integrity of the BBB. To evaluate if K16ApoE (SEQ ID NO: 22) impairs the integrity of the BBB, the peptide was first injected intravenously, then injected β-galactosidase at different time intervals. The control mice received the enzyme mixed with the peptide. […]
substance,measurement,setting,value
"KKKKKKKKKKKKKKKK [K16, KKKKKKKKKKKKKKKK]",β-galactosidase staining in brain sections,BBB [1],β-galactosidase staining only in slides from mice receiving β-galactosidase mixed with K16ApoE
"KKKKKKKKKKKKKKKKLRLRLANHLRKLRKRLLRDA [mutant A, KKKK KKKK KKKK KKKK LRLR LANH LRKL RKRL LRDA]",transport of β-galactosidase compared with wild-type ApoE blood-brain barrier agent,BBB [2],worse than the wild-type
"KKKKKKKKKKKKKKKKLRLRLASHLRKLRKRLLRDL [mutant B, KKKK KKKK KKKK KKKK LRLR LASH LRKL RKRL LRDL]",transport of β-galactosidase compared with wild-type ApoE blood-brain barrier agent,BBB [2],at least as well as wild-type or better
"KKKKKKKKKKKKKKKKLRVRLANHLRKLRKRLLRDL [mutant C, KKKK KKKK KKKK KKKK LRVR LANH LRKL RKRL LRDL]",transport of β-galactosidase compared with wild-type ApoE blood-brain barrier agent,BBB [2],at least as well as wild-type or better
"KKKKKKKKKKKKKKKKLRVRLASHLRKLRKRLLRDA [K16ApoE, KKKKKKKKKKKKKKKKLRVRLASHLRKLRKRLLRDA]",Vp values in all the brain regions examined (in words),BBB [3],virtually unchanged
same,damage of the BBB due to prior exposure to the peptide,BBB [3],not damaged
same,contrast and enhancement of brain structures compared to uncomplexed AlexaIgG488,brain [4],significantly brighter contrast and enhancement of brain structures
same,areas of the brain reached by the delivered β-galactosidase,"brain [5]; mouse, in vivo",virtually every area of the brain
same,β-galactosidase activity in brain,"brain [5]; mouse, in vivo",intense β-galactosidase activity
same,share of the injected immunoglobulins transported into the brain,"mouse brain; IgG and IgM, under the experimental condition",about 1%
same,difference between brain-uptake of the protein with and without the carrier peptide,"mouse brain; IgG and IgM, after cardiac perfusion",~5 fold
same,time of peak delivery of IgG and IgM into brain,"mouse brain; post-injection of peptide-protein mix, 70-fold molar excess of peptide, FIG. 4",around 2 hours
same,effect of the peptide by itself on the BBB,BBB [6],did not seem to affect the BBB
same,time until binding of injected peptide to proteins and cells in the circulation is virtually complete,BBB [6]; iv,≤ 10 min
"β-galactosidase: Bacterial β-galactosidase purchased from Calbiochem, enzyme injected alone [reference compound]",β-galactosidase activity in brain,"brain [5]; protein to peptide molar ratio 1:70 or enzyme alone, slices 6 hours after injection, FIG. 3A",no activity
